Source: patent US8460669B2, “Compositions and methods for identifying response targets and treating flavivirus infection responses” (Academia Sinica, priority 2005, dated 2013)

Key:
[1] = molecular target: T1, DC-SIGNR.Fc (Homo sapiens, UniProt Q9H2X3); assay: Immunosorbent dot binding assay with DC-SIGNR.Fc; details: EDTA 10 mM in TBST
T1 construct: The extracellular domains of lectin receptors, TREMs and TLTs were cloned by the reverse-transcriptase polymerase chain reaction (RT-PCR); made in house; host or cells: 293-F (FreeStyle 293) cells
T1 sequence (Q9H2X3 71-399): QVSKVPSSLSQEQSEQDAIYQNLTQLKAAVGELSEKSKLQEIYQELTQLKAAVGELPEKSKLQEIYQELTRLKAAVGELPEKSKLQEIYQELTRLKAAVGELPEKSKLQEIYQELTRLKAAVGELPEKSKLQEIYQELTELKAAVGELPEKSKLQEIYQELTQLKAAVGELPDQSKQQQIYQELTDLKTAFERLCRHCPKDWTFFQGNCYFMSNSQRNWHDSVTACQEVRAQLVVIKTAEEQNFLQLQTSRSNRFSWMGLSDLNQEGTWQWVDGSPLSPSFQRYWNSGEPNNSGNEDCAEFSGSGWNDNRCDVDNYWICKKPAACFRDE

[2] = molecular target: T2, TLT-2.Fc (Homo sapiens, UniProt Q5T2D2); assay: Immunosorbent dot binding assay with TLT-2.Fc; details: EDTA 10 mM in TBST
T2 construct: The extracellular domains of lectin receptors, TREMs and TLTs were cloned by the reverse-transcriptase polymerase chain reaction (RT-PCR); made in house; host or cells: 293-F (FreeStyle 293) cells
T2 sequence (Q5T2D2 19-268 limits assumed): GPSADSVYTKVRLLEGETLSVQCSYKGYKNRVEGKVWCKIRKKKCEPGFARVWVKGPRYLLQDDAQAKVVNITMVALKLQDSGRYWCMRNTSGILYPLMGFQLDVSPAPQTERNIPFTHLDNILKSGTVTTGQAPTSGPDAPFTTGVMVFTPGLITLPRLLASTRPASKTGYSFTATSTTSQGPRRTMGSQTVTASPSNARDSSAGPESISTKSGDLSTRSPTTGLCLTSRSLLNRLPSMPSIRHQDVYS

[3] = molecular target: T3, Dectin-1.Fc (Homo sapiens, UniProt Q9BXN2); assay: Immunosorbent dot binding assay with Dectin-1.Fc; details: competitor 0.1 μg-1000 μg, or EDTA 10 mM in TBST
T3 construct: The extracellular domains of lectin receptors, TREMs and TLTs were cloned by the reverse-transcriptase polymerase chain reaction (RT-PCR); made in house; host or cells: 293-F (FreeStyle 293) cells
T3 sequence (Q9BXN2 66-247 limits assumed): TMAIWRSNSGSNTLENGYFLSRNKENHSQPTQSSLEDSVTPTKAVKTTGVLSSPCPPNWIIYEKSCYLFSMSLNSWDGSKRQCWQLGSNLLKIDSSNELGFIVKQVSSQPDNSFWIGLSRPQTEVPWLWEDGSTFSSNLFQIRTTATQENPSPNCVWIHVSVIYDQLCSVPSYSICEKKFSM

[4] = molecular target: T4, KCR.Fc (Mus musculus, UniProt P70194); assay: Immunosorbent dot binding assay with KCR.Fc; details: EDTA 10 mM in TBST
T4 construct: the extracellular domains of DVLR1/CLEC5A (MDL-1), Dectin-1, KCR, and DC-SIGN (as a positive control) were fused to the Fc portion of human IgG1; made in house; host or cells: 293-F (FreeStyle 293) cells
T4 sequence (P70194 70-548 limits assumed): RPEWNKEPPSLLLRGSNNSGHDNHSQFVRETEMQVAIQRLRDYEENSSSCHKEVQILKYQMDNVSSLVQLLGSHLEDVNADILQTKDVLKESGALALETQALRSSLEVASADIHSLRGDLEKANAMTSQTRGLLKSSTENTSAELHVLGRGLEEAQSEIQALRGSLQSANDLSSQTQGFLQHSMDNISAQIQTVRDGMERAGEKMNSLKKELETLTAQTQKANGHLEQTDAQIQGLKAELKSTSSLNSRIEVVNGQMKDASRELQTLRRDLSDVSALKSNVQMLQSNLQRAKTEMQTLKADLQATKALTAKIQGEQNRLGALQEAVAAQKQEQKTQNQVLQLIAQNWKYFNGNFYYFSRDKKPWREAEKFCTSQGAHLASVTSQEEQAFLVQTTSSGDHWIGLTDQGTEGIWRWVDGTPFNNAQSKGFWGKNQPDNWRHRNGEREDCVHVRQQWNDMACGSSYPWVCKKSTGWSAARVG

[5] = molecular target: T5, MMR.Fc (Homo sapiens, UniProt P22897); assay: Sugar competition EIA, MMR.Fc binding to GLPS-F3; details: sugar 1 mg/ml
T5 construct: The extracellular domains of lectin receptors, TREMs and TLTs were cloned by the reverse-transcriptase polymerase chain reaction (RT-PCR); made in house; host or cells: 293-F (FreeStyle 293) cells
T5 sequence (P22897 19-1389 limits assumed): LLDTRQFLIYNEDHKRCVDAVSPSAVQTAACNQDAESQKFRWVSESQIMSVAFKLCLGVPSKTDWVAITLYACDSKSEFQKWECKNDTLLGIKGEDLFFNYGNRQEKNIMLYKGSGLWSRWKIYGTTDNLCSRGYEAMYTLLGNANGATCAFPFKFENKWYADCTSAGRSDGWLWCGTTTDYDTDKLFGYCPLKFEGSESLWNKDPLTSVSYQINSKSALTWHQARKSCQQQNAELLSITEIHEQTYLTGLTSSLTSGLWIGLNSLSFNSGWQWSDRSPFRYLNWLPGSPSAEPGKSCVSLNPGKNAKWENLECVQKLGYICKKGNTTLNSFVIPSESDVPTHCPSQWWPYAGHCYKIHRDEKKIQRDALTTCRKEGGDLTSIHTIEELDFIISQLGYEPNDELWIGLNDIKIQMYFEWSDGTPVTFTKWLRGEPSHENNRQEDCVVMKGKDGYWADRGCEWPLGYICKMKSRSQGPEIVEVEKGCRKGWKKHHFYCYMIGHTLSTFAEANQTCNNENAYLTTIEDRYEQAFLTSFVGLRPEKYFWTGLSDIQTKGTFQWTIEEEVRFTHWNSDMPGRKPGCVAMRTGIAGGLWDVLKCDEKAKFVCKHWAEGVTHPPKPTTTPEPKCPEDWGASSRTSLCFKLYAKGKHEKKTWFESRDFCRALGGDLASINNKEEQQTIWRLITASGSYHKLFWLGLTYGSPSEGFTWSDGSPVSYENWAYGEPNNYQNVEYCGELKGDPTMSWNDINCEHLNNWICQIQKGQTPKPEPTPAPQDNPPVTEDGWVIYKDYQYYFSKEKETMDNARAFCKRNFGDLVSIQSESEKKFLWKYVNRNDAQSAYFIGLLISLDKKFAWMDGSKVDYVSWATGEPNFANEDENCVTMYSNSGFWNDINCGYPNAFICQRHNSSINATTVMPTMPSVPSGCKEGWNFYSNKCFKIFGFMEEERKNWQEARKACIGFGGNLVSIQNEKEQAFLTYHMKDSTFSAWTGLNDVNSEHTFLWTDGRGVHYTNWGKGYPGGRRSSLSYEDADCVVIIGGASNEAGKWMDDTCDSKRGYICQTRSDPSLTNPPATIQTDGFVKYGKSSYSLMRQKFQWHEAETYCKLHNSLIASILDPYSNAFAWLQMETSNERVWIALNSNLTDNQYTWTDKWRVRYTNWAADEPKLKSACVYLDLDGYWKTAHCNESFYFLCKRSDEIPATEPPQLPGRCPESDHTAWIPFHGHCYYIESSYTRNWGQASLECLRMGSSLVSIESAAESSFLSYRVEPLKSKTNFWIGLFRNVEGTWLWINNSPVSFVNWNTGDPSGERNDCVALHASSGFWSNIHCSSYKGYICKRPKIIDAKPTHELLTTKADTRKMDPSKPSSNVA
Experimental: (§1) The interaction between GLPS-F3 and receptor.Fc was then tested. Unbiotinylated GLPS-F3 was immobilized at 100 ng/well as described above, and 100 μL receptor.Fc fusion protein (1 μg/ml in 2 mM MgCl2/2 mM CaCl2/1% BSA/TBST) was added into each well and incubated for 1 hour at room temperature. After washing with TBST, wells were incubated with peroxidase-conjugated goat anti-human IgG Ab (1:5000 dilution, Jackson ImmunoResearch Laboratories) in blocking buffer at room temperature for 30 min. Wells were incubated with 100 μL TMB substrate for 15 min after TBST washing and read at 450 nm in a Fusion plate reader (Perkin Elmer). The results were normalized with respect to Fc.Dectin-1 binding (Dectin-1 is a known lectin receptor that binds to β-1,3-glucan which is the backbone found in GLPS-F3). FIG. 6B depicts in graphical form the affinity of each receptor for GLPS-F3 relative to Dectin-1. […] There was also weaker but positive GLPS-F3 binding ability (25-50% binding intensity compared to Fc.dectin-1) found in Fc.NKG2D, Fc.MINCLE, Fc.mKCR, DCAL1.Fc, DEC205.Fc, Endo180.Fc and NKp30(NCR3).Fc.
(§2) To understand the interaction of GLPS-F3 with specific innate immunity receptors, the polysaccharides mannan and β-glucan and the monosaccharides D-mannose (Man), D-glucose (Glc), N-acetyl-glucosamine (GlcNAc), D-galactose (Gal), N-acetyl-galactosamine (GalNAc), L-fucose (Fuc) and sialic acid, were used in a competition assay. […] The assays were carried out as in Example 9, with the addition of 1 mg/ml of each polysaccharide or monosaccharide.

[6] = molecular target: T6, TLR4.Fc (Homo sapiens, UniProt O00206); assay: Sugar competition EIA, TLR4.Fc binding to GLPS-F3; details: sugar 1 mg/ml
T6 construct: The extracellular domains of several innate immunity receptors from immune cells were cloned by reverse-transcription polymerase chain reaction (RT-PCR); made in house; host or cells: 293-F (FreeStyle 293) cells
T6 sequence (O00206 24-631 limits assumed): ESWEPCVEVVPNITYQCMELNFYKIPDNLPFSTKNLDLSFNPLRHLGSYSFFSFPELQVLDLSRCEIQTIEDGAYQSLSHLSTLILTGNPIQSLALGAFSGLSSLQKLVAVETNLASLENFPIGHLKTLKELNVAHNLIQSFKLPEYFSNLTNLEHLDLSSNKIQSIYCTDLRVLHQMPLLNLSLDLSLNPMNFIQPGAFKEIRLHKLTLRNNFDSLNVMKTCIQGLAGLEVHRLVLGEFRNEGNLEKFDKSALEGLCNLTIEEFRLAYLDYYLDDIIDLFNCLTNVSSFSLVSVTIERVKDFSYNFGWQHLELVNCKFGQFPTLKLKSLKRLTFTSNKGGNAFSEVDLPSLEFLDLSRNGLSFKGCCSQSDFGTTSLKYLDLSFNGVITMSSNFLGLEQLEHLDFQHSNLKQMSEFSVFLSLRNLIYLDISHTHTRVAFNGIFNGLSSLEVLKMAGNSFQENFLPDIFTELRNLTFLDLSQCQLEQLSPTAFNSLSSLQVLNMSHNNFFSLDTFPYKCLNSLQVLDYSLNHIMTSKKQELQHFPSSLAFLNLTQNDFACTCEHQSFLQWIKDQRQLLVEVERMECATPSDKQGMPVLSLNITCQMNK
Experimental: as §1, §2

Structure (SMILES): O=C(O)CN(CCN(CC(=O)O)CC(=O)O)CC(=O)O [EDTA, Ethylene Diamine Tetra Acetic Acid]
- inhibition of the interaction of F3 with DC-SIGNR.Fc [1]: completely oabolished
- inhibition of the interaction of F3 with TLT2.Fc [2]: not
- inhibition of the interaction between Dectin-1.Fc and F3 [3]: not
- inhibition of the interaction of F3 with KCR.Fc [4]: completely oabolished

Structure (SMILES): O=C[C@H](O)[C@@H](O)[C@@H](O)[C@H](O)CO [Gal, D-galactose]
- inhibition of interaction between GLPS-F3 and MMR.Fc [5]: 36%
- inhibition of the interaction between Dectin-1.Fc and F3 [3]: not
- Percentage of binding of TLR4.Fc to GLPS-F3 relative to binding in absence of sugar competitor [6]: 100 ± 2.7%
